Consider 17 molecules from patent US7674819B2 (Warner-Lambert Company LLC, priority 2005, dated 2010).

Residue numbers refer to the chain shown, from its start. Read-outs that look alike come from different tables or passages of the source.

One assay has as its target T1, hAR (Homo sapiens, UniProt P10275).
T1 sequence (P10275 1-920): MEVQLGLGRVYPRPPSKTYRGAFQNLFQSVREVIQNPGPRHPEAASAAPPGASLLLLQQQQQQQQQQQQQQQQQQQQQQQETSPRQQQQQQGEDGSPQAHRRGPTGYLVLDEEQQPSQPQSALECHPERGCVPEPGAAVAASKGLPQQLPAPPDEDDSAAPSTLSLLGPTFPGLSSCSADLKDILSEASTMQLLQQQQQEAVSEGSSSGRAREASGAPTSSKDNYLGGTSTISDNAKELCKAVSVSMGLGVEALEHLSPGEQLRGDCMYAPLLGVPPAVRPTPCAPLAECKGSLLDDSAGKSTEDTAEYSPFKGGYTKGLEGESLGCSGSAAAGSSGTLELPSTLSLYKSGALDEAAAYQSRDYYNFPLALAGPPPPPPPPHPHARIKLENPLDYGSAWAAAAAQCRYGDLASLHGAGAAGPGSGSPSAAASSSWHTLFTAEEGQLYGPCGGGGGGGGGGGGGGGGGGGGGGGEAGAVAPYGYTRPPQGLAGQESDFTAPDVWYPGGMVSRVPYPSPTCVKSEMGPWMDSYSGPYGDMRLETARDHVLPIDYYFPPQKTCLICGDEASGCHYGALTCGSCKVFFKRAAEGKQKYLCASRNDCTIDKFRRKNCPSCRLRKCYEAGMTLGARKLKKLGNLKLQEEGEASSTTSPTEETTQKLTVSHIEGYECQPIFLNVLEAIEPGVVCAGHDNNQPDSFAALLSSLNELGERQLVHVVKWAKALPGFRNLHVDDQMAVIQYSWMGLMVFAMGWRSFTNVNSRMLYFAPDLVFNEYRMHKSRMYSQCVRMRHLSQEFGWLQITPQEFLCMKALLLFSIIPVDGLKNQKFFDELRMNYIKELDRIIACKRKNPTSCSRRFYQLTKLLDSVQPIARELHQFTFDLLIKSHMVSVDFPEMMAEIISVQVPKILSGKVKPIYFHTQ
In words: Competitive binding of 3H-DHT to baculovirus/Sf9 generated hAR extracts. The conditions noted are these: one hour at 4° C., mean of multiple tests. The gist of the method:
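Baculovirus/Sf9-expressed hAR extract incubated with test compound, hydroxylapatite and 1 nM 3H-DHT tracer for 1 h at 4° C, then washed free of unbound tracer. Affinity given as concentration inhibiting half of maximal 3H-DHT binding.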

The next assay has as its target T2, androgen receptor (Homo sapiens, UniProt P10275).
T2 sequence (P10275 1-920 Q868H): T1 sequence (P10275 1-920) with Q868H
In words: AR Antagonist Cell Assay (MDA-MB453-MMTV clone 54-19, luciferase reporter). Conditions: inhibition of induction by DHT (final concentration at 100 μM), 17 hr, compound 0.32-1000 nM, mean of multiple tests. It is filed as cell-based. The procedure:
The compounds ability to antagonize the effects of androgen on the androgen receptor were determined in a whole cell assay as described immediately below.
Experimental Procedure for AR Antagonist Cell Assay
This cell line is a stable transfected cell line with MDA-MB453 cell background (a human breast tumor cell line expressing androgen receptor). A MMTV minimal promoter containing ARE was first cloned in front of a firefly luciferase reporter gene. Then the cascade was cloned into transfection vector pUV120puro. […] Puromycin resistant stable cell line was selected.
Cell Culture Media and Reagents:
Plating medium: DMEM (phenol red free), 10% charcoal treated HyClone serum, 1% L-glutamine
Assay medium: DMEM (phenol red free), 1% charcoal treated HyClone serum, 1% L-glutamine, 1% penicillin/streptomycin
Cells are maintained in culture medium, splitting cells when they reach 80-90% confluence
To test compounds, 10,000 cells/well are plated to opaque 96 cell culture plate in 100 ul/well plating medium, culture for overnight at 37° C. in cell culture incubator
Add 10 ul/well freshly prepared DHT (final concentration at […]) to each well, incubate at 37° C. for 17 hr (overnight)
Add 50 ul/well 3× luciferase buffer, incubate at room temperature for 5 minutes, then count on Luminometer
The results are reported as the mean of multiple tests described below (the numbers of tests are indicated in the footnote). N.D. denotes that the compound was not tested.

[1] abbreviates: concentration at which one half of maximum binding of 1 nM 3H-DHT to hAR is inhibited, read-out: IC50.
The mark [2] stands for this setting: IC50, concentration at which one half of maximum binding of 1 nM 3H-DHT to hAR is inhibited.

In the case of `C[C@@H](c1ccc(F)cc1)N1CC(C)(C)[C@@H](Oc2ccc(C#N)c(C(F)(F)F)c2)C1=O` (racemic) [Example 71, (±)-4-{1-[1-(4-Fluoro-phenyl)-ethyl]-4,4-dimethyl-2-oxo-pyrrolidin-3-yloxy}-2-trifluoromethyl-benzonitrile], the IC50 on hAR (setting [1]) is 104 nM; on androgen receptor, 6 nM.

With `CCCC(C)N1CC(C)(C)C(Oc2ccc(C#N)c(C(F)(F)F)c2)C1=O` (racemic) [Example 72, (±)-4-[4,4-Dimethyl-1-(1-methyl-butyl)-2-oxo-pyrrolidin-3-yloxy]-2-trifluoromethyl-benzonitrile], the IC50 on hAR (setting [2]) is 203 nM; against androgen receptor, 7 nM.

With `CC1(C)CN(Cc2ccc(O)cc2)C(=O)C1Oc1ccc(C#N)c(C(F)(F)F)c1` (single isomer, unassigned) [Example 9, 4-[1-(4-Hydroxy-benzyl)-4,4-dimethyl-2-oxo-pyrrolidin-3-yloxy]-2-trifluoromethyl-benzonitrile], the IC50 was determined as 18 nM at hAR (setting [2]) and 46 nM against androgen receptor.

With `CC1(C)CN(S(C)(=O)=O)C(=O)C1Oc1ccc(C#N)c(C(F)(F)F)c1` (single isomer, unassigned) [Example 100, 4-(1-Methanesulfonyl-4,4-dimethyl-2-oxo-pyrrolidin-3-yloxy)-2-trifluoromethyl-benzonitrile], the IC50 at hAR (setting [2]) and on androgen receptor was 12 nM each time.

For `CSCN1CC(C)(C)C(Oc2ccc(C#N)c(C(F)(F)F)c2)C1=O` (single isomer, unassigned) [Example 100B, 4-(4,4-Dimethyl-1-methylsulfanylmethyl-2-oxo-pyrrolidin-3-yloxy)-2-trifluoromethyl-benzonitrile], the IC50 at hAR (setting [2]) worked out at 76 nM; on androgen receptor, 24 nM.

For `CC1(C)CN(S(=O)(=O)C2CC2)C(=O)C1Oc1ccc(C#N)c(C(F)(F)F)c1` (single isomer, unassigned) [Example 100C, 4-(1-Cyclopropanesulfonyl-4,4-dimethyl-2-oxo-pyrrolidin-3-yloxy)-2-trifluoromethyl-benzonitrile], the IC50 on hAR (setting [2]) was 59 nM; against androgen receptor it was 38 nM.

In the case of `CC1(C)CN(Cc2ccccc2)C(=O)C1Oc1ccc(C#N)c(C(F)(F)F)c1` (single isomer, unassigned; (+)) [Example 6, (+)-4-(1-Benzyl-4,4-dimethyl-2-oxo-pyrrolidin-3-yloxy)-2-trifluoromethyl-benzonitrile], the IC50 at hAR (setting [2]) amounted to 31 nM; on androgen receptor, 136 nM.

Regarding `CC1(C)CN(Cc2cccc(O)c2)C(=O)C1Oc1ccc(C#N)c(C(F)(F)F)c1` (single isomer, unassigned; (+)) [Example 14, (+)-4-[1-(3-Hydroxy-benzyl)-4,4-dimethyl-2-oxo-pyrrolidin-3-yloxy]-2-trifluoromethyl-benzonitrile], the values for the IC50 at hAR (setting [2]) and against androgen receptor were 23 nM and 99 nM, respectively.

`COc1cccc(C(C)N2CC(C)(C)C(Oc3ccc(C#N)c(C(F)(F)F)c3)C2=O)c1` (single isomer, unassigned; (+)) [Example 23, (+)-4-{1-[1-(3-Methoxy-phenyl)-ethyl]-4,4-dimethyl-2-oxo-pyrrolidin-3-yloxy}-2-trifluoromethyl-benzonitrile]: the IC50 was found to be 64 nM at hAR (setting [2]) and 58 nM against androgen receptor.

Consider `CC1(C)CN(S(C)(=O)=O)C(=O)C1Oc1ccc(C#N)c(C(F)(F)F)c1` (single isomer, unassigned; (+)) [Example 96, (+)-4-(1-Methanesulfonyl-4,4-dimethyl-2-oxo-pyrrolidin-3-yloxy)-2-trifluoromethyl-benzonitrile], for which the IC50 came to 12 nM on hAR (concentration at which one half of maximum binding of 1 nM 3H-DHT to hAR is inhibited) and 36 nM at androgen receptor.

For `CCCC(=O)N1CC(C)(C)C(Oc2ccc(C#N)c(C(F)(F)F)c2)C1=O` (single isomer, unassigned; (+)) [Example 103, (+)-4-(1-Butyryl-4,4-dimethyl-2-oxo-pyrrolidin-3-yloxy)-2-trifluoromethyl-benzonitrile (single enantiomer)], the IC50 was 130 nM at hAR (setting [1]) and 125 nM on androgen receptor (read-out: IC50).

`CC1(C)CN(C(=O)c2ccccc2)C(=O)C1Oc1ccc(C#N)c(C(F)(F)F)c1` (single isomer, unassigned; (+)) [Example 105, (+)-4-(1-Benzoyl-4,4-dimethyl-2-oxo-pyrrolidin-3-yloxy)-2-trifluoromethyl-benzonitrile]: the results for the IC50 on hAR (setting [1]) and on androgen receptor were 252 nM and 22 nM, respectively.

For the molecule `CC1(C)CN(Cc2ccccc2)C(=O)C1Oc1ccc(C#N)c(C(F)(F)F)c1` (stereo not shown) [Example 5, 4-(1-Benzyl-4,4-dimethyl-2-oxo-pyrrolidin-3-yloxy)2-trifluoromethyl-benzonitrile], the IC50 turned out to be 32 nM on hAR (setting [2]) and 12 nM against androgen receptor.

In the case of `CC1(C)CN(Cc2ccc(O)cc2)C(=O)C1Oc1ccc(C#N)c(C(F)(F)F)c1` (stereo not shown) [Example 8, 4-[1-(4-Hydroxy-benzyl)-4,4-dimethyl-2-oxo-pyrrolidin-3-yloxy]-2-trifluoromethyl-benzonitrile], the IC50 at hAR (setting [2]) was determined as 17 nM; against androgen receptor it was 33 nM.

Turning to `CC1(C)CN(Cc2ccccc2O)C(=O)C1Oc1ccc(C#N)c(C(F)(F)F)c1` (stereo not shown) [Example 11, 4-[1-(2-Hydroxy-benzyl)-4,4-dimethyl-2-oxo-pyrrolidin-3-yloxy]-2-trifluoromethyl-benzonitrile], the IC50 at hAR (setting [2]) worked out at 17 nM; at androgen receptor, 14 nM.

Take `COc1cccc(CN2CC(C)(C)C(Oc3ccc(C#N)c(C(F)(F)F)c3)C2=O)c1` (stereo not shown) [Example 12, 4-[1-(3-Methoxy-benzyl)-4,4-dimethyl-2-oxo-pyrrolidin-3-yloxy]-2-trifluoromethyl-benzonitrile]: the IC50 is 111 nM at hAR (setting [2]) and 310 nM at androgen receptor.

For the molecule `CC1(C)CN(Cc2cccc(O)c2)C(=O)C1Oc1ccc(C#N)c(C(F)(F)F)c1` (stereo not shown) [Example 13, 4-[1-(3-Hydroxy-benzyl)-4,4-dimethyl-2-oxo-pyrrolidin-3-yloxy]-2-trifluoromethyl-benzonitrile], the values for the IC50 on hAR (setting [2]) and at androgen receptor were 11 nM and 313 nM, respectively.

In general, IC50 refers to the point on the concentration scale where inhibition reaches its midpoint.
